# Measured values from ChEMBL document CHEMBL5390268, “α-Pyrone Derivatives from Calcarisporium arbuscula Discovered by Genome Mining” (J Nat Prod, 2023).
# Active and inactive are the calls of the source. No cut-off for these calls is given here.
# Experiments:
# Staphylococcus aureus = test: Antimicrobial activity against Staphylococcus aureus assessed as bacterial growth inhibition incubated for 24 hrs by absorbance based assay; type: functional, organism-based
# HepG2 [1] = test: Cytotoxicity against human HepG2 cells assessed as inhibition of cell proliferation at 20 ug/ml incubated for 48 hrs by MTS assay; type: functional, cell-based; conditions: dose 20.0 µg/ml
# Bacillus subtilis = test: Antimicrobial activity against Bacillus subtilis assessed as bacterial growth inhibition incubated for 24 hrs by absorbance based assay; type: functional, organism-based
# Candida albicans = test: Antimicrobial activity against Candida albicans assessed as fungal growth inhibition by absorbance based assay; type: functional, organism-based
# B16 [2] = test: Cytotoxicity against mouse B16 cells assessed as inhibition of cell proliferation at 20 ug/ml incubated for 48 hrs by MTS assay; type: functional, cell-based; conditions: dose 20.0 µg/ml
# Escherichia coli = test: Antimicrobial activity against Escherichia coli assessed as bacterial growth inhibition incubated for 24 hrs by absorbance based assay; type: functional, organism-based
# HCT-116 [3] = test: Cytotoxicity against human HCT-116 cells assessed as inhibition of cell proliferation at 20 ug/ml incubated for 48 hrs by MTS assay; type: functional, cell-based; conditions: dose 20.0 µg/ml
# Saccharomyces cerevisiae = test: Antimicrobial activity against Saccharomyces cerevisiae assessed as fungal growth inhibition by absorbance based assay; type: functional, organism-based
# HepG2 [4] = test: Cytotoxicity against human HepG2 cells assessed as inhibition of cell proliferation incubated for 48 hrs by MTS assay; type: functional, cell-based; conditions: HepG2, 48 h
# HCT-116 [5] = test: Cytotoxicity against human HCT-116 cells assessed as inhibition of cell proliferation incubated for 48 hrs by MTS assay; type: functional, cell-based; conditions: HCT-116, 48 h
# B16 [6] = test: Cytotoxicity against mouse B16 cells assessed as inhibition of cell proliferation incubated for 48 hrs by MTS assay; type: functional, cell-based; conditions: B16, 48 h
SMILES,inhibition (Staphylococcus aureus),inhibition (HepG2 [1]),inhibition (Bacillus subtilis),inhibition (Candida albicans),inhibition (B16 [2]),inhibition (Escherichia coli),inhibition (HCT-116 [3]),inhibition (Saccharomyces cerevisiae),IC50 (HepG2 [4]) [µM],IC50 (HCT-116 [5]) [µM],IC50 (B16 [6]) [µM]
CCCCC[C@@H](O)[C@H](O)c1cc(OC)cc(=O)o1,inactive,inactive,inactive,inactive,inactive,inactive,inactive,inactive,,,
CCCCC/C=C/c1cc(OC)cc(=O)o1,inactive,inactive,inactive,inactive,inactive,inactive,inactive,inactive,,,
C/C=C/CC[C@@H](O)[C@H](O)c1cc(OC)cc(=O)o1,inactive,inactive,inactive,inactive,inactive,inactive,inactive,inactive,,,
C/C=C/CC/C=C/c1cc(OC)cc(=O)o1,inactive,,inactive,inactive,,inactive,,inactive,41.8,21.7,38.5
